This note sets out measurements from ChEMBL document CHEMBL1201862, “PubChem BioAssay data set” (2004).

Test systems include UACC-257; SK-MEL-5; SK-OV-3; SK-MEL-28; NCI/ADR-RES; MOLT-4; T47D; HOP-62; OVCAR-8; SF-268; SNB-19; Hs-578T; HCT-116; ACHN; BT-549; IGROV-1; NCI-H226; 786-0; SR.
Holding throughout (assay): NCI-60 cell line screen, 48 h

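Five concentrations, 48 hours, 96-well plates. GI50 is the concentration that inhibits growth by half.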 Active and inactive are the calls of the source. Cut-off read from the data, not from the text of the source: active = GI50 up to about 1.1 µM and inactive = higher.

With `Nn1c(Cc2ccccc2)n[nH]c1=O`, the GI50 with UACC-257, in the assay with SK-MEL-5, in the assay on SK-OV-3, in the assay with SK-MEL-28, with NCI/ADR-RES and in the assay with MOLT-4 was > 100 µM (inactive) in each case. Besides, the GI50 in the assay on T47D, with HOP-62, in the assay on OVCAR-8, in the assay on SF-268, with SNB-19 and in the assay on Hs-578T was > 100 µM (inactive) throughout. The GI50 in the assay with HCT-116, in the assay on ACHN, in the assay with BT-549, in the assay on IGROV-1, in the assay with NCI-H226 and with 786-0 was > 100 µM (inactive) throughout. In addition, the GI50 with SR was > 100 µM (inactive).
Consider `C=C1C(=O)O[C@@H]2C[C@@H]3[C@]4(CC[C@]5(C)[C@@H]([C@H](C)CC/C=C(\C)C=O)CC[C@@]35C)C[C@]4(CCC(=O)OC)[C@H]12`, for which the GI50 with UACC-257 is 0.454 µM (active); in the assay on SK-MEL-5 it was 0.83 µM (active); in the assay on SK-OV-3, 3.52 µM (inactive); in the assay on SK-MEL-28 it was 2 µM (inactive); in the assay on NCI/ADR-RES, 2.35 µM (inactive); with MOLT-4, 0.979 µM (active). In addition, the GI50 in the assay on T47D was 1.9 µM (inactive); in the assay on HOP-62 it was 2.38 µM (inactive); in the assay with OVCAR-8 it was 1.12 µM (active); in the assay with SF-268 it was 1.72 µM (inactive); in the assay with SNB-19, 1.97 µM (inactive); in the assay with Hs-578T, 3.01 µM (inactive). Besides, the GI50 was 0.771 µM (active) in the assay on HCT-116; 2.06 µM (inactive) in the assay on ACHN; 2.03 µM (inactive) in the assay on BT-549; 2.13 µM (inactive) with IGROV-1; 3.4 µM (inactive) with NCI-H226; 1.71 µM (inactive) with 786-0. The GI50 in the assay with SR is 0.993 µM (active).
Consider `CCOC(=O)C1(Cc2ccccc2)Cc2cc3c(cc2C1)CCC3`, for which the GI50 in the assay on UACC-257 was 40.7 µM (inactive); with SK-OV-3, 35 µM (inactive); in the assay with SK-MEL-28 it was 38.8 µM (inactive); in the assay on NCI/ADR-RES, 48.1 µM (inactive); with MOLT-4, 17.5 µM (inactive); in the assay with T47D it was 26.7 µM (inactive). Moreover, the GI50 was 37.2 µM (inactive) with HOP-62; 47.3 µM (inactive) with OVCAR-8; 52.4 µM (inactive) with SF-268; 55.8 µM (inactive) with SNB-19; 22.3 µM (inactive) in the assay with Hs-578T; 24.3 µM (inactive) in the assay on HCT-116. In addition, the GI50 was 38.7 µM (inactive) in the assay with ACHN; 25.2 µM (inactive) in the assay on BT-549; 39 µM (inactive) in the assay on IGROV-1; 25.2 µM (inactive) in the assay with NCI-H226; 38.1 µM (inactive) in the assay with 786-0; 23.9 µM (inactive) in the assay with SR.
Take `Cc1c2cccc-2c(OCCO)cc2c1[nH]c1ccccc12`: the GI50 is 3.15 µM (inactive) in the assay on UACC-257; 1.34 µM (inactive) in the assay on SK-MEL-5; 3.27 µM (inactive) in the assay with SK-OV-3; 4.49 µM (inactive) in the assay with SK-MEL-28; 3.03 µM (inactive) in the assay with NCI/ADR-RES; 2.99 µM (inactive) with MOLT-4. Also, the GI50 with T47D is 3.24 µM (inactive); with HOP-62, 3.42 µM (inactive); with OVCAR-8, 3.6 µM (inactive); in the assay with SF-268, 1.65 µM (inactive); with SNB-19, 8.57 µM (inactive); in the assay on Hs-578T, 1.67 µM (inactive). Further, the GI50 in the assay with HCT-116 is 3.01 µM (inactive); in the assay with ACHN, 1.64 µM (inactive); in the assay on BT-549 it was 2.92 µM (inactive); in the assay with IGROV-1, 1.88 µM (inactive); in the assay with NCI-H226, 2.96 µM (inactive); with 786-0, 2.24 µM (inactive). Also, the GI50 in the assay with SR was 5.27 µM (inactive).
As to `S=C(S)NCCN1CCNCC1`, the GI50 was 20.7 µM (inactive) in the assay with UACC-257; 52.1 µM (inactive) in the assay with SK-MEL-5; > 100 µM (inactive) with SK-OV-3; > 100 µM (inactive) with SK-MEL-28; > 100 µM (inactive) in the assay with NCI/ADR-RES; 10.7 µM (inactive) in the assay on T47D. For the same molecule, the GI50 in the assay with HOP-62 was > 100 µM (inactive); with OVCAR-8 it was 28.9 µM (inactive); with SF-268, 99.3 µM (inactive); in the assay with SNB-19, > 100 µM (inactive); with Hs-578T it was > 100 µM (inactive); with HCT-116, 27.9 µM (inactive). For the same molecule, the GI50 was 36.7 µM (inactive) in the assay with ACHN; 88.1 µM (inactive) with BT-549; 49.5 µM (inactive) in the assay on IGROV-1; > 100 µM (inactive) with NCI-H226; 22.3 µM (inactive) with 786-0; 24.5 µM (inactive) in the assay with SR.
In the case of `CC(=O)Nc1ccc(C(=O)NN2C(=O)C(Cl)C2c2ccc(Cl)cc2)cc1` (stereo unspecified), the GI50 in the assay with UACC-257 is > 100 µM (inactive); with SK-MEL-5 it was > 100 µM (inactive); with SK-OV-3 it was 25.4 µM (inactive); in the assay with SK-MEL-28 it was 52.5 µM (inactive); with NCI/ADR-RES, > 100 µM (inactive); in the assay with MOLT-4 it was > 100 µM (inactive). The GI50 in the assay with T47D is > 100 µM (inactive); in the assay with HOP-62, 22.2 µM (inactive); in the assay with OVCAR-8, 37 µM (inactive); in the assay on SF-268 it was 23.3 µM (inactive); in the assay with SNB-19 it was 24.2 µM (inactive); in the assay with Hs-578T it was 8.83 µM (inactive). The GI50 is > 100 µM (inactive) in the assay with HCT-116; > 57.5 µM (inactive) with ACHN; 72.6 µM (inactive) with BT-549; 37.3 µM (inactive) in the assay with IGROV-1; > 57.4 µM (inactive) in the assay with NCI-H226; 18.7 µM (inactive) in the assay on 786-0. The GI50 in the assay with SR is > 100 µM (inactive).
On to `CCCCCC/C=C\CCCCCCCCCC1=CC(=O)C=C(OC)C1=O` [IRISQUINONE A], for which the GI50 is 3.28 µM (inactive) in the assay on UACC-257; 2.54 µM (inactive) with SK-MEL-5; 4.36 µM (inactive) in the assay on SK-OV-3; 11.5 µM (inactive) in the assay on SK-MEL-28; 3.8 µM (inactive) with NCI/ADR-RES; 3.79 µM (inactive) with MOLT-4. Besides, the GI50 with T47D is 2.23 µM (inactive); in the assay with HOP-62, 3.48 µM (inactive); in the assay with OVCAR-8 it was 0.593 µM (active); in the assay on SF-268 it was 5.93 µM (inactive); with SNB-19 it was 2.89 µM (inactive); in the assay with Hs-578T it was 7.36 µM (inactive). Besides, the GI50 is 3.43 µM (inactive) in the assay on HCT-116; 3.18 µM (inactive) with ACHN; 2.16 µM (inactive) in the assay on BT-549; 2.23 µM (inactive) with IGROV-1; 2.52 µM (inactive) in the assay on NCI-H226; 4.68 µM (inactive) with 786-0. Besides, the GI50 in the assay with SR was 2.72 µM (inactive).
Regarding `N=C(N)NC(=N)Nc1ccc(S(N)(=O)=O)cc1`, the GI50 in the assay with UACC-257, in the assay on SK-MEL-5, in the assay on SK-OV-3, with SK-MEL-28, in the assay on NCI/ADR-RES and in the assay with MOLT-4 was > 100 µM (inactive) each time. Moreover, the GI50 with T47D, in the assay on HOP-62, in the assay with OVCAR-8, in the assay with SF-268, in the assay on SNB-19 and in the assay on Hs-578T was > 100 µM (inactive) each time. Besides, the GI50 with HCT-116, in the assay with ACHN, in the assay on BT-549, with IGROV-1, in the assay with NCI-H226 and in the assay with 786-0 was > 100 µM (inactive) in each case. The GI50 in the assay on SR was > 100 µM (inactive).
Regarding `COc1cc2c3c(cc(Cl)nc3c1OC)C(O)(CC(C)=O)C(=O)N2` (stereo unspecified), the GI50 is 8 µM (inactive) with UACC-257; > 41 µM (inactive) with SK-MEL-5; > 47.1 µM (inactive) in the assay with SK-OV-3; > 45.4 µM (inactive) with SK-MEL-28; > 44.9 µM (inactive) with NCI/ADR-RES; 9.35 µM (inactive) in the assay with MOLT-4. For the same molecule, the GI50 with T47D was 3.2 µM (inactive); in the assay on HOP-62, > 44.6 µM (inactive); in the assay with OVCAR-8, 18.5 µM (inactive); with SF-268, 6.07 µM (inactive); with SNB-19, > 40.3 µM (inactive); in the assay with Hs-578T, 40.3 µM (inactive). In addition, the GI50 is 17.3 µM (inactive) in the assay with HCT-116; 24.9 µM (inactive) with ACHN; 16.8 µM (inactive) in the assay with BT-549; 19.1 µM (inactive) with IGROV-1; > 42.3 µM (inactive) with NCI-H226; 17.1 µM (inactive) in the assay with 786-0. In the assay with SR, the GI50 is 19.3 µM (inactive).
In the case of `CN1CCC2(c3ccccc3)CC(=O)/C(=C/c3ccc(Cl)c(Cl)c3)C1C2.[O-][Cl+3]([O-])([O-])O` (stereo unspecified), the GI50 is 9.46 µM (inactive) in the assay with UACC-257; 2.6 µM (inactive) in the assay on SK-MEL-5; 4.05 µM (inactive) in the assay with SK-OV-3; 2.1 µM (inactive) with SK-MEL-28; 2.78 µM (inactive) in the assay on NCI/ADR-RES; 2.6 µM (inactive) with MOLT-4. Further, the GI50 with T47D was 4.7 µM (inactive); with HOP-62 it was 3.37 µM (inactive); in the assay on OVCAR-8, 2.21 µM (inactive); in the assay on SF-268, 1.86 µM (inactive); in the assay on SNB-19 it was 2.3 µM (inactive); with Hs-578T, 4.47 µM (inactive). Further, the GI50 is 2.62 µM (inactive) in the assay with HCT-116; 1.77 µM (inactive) in the assay on ACHN; 2.72 µM (inactive) with BT-549; 1.95 µM (inactive) in the assay with IGROV-1; 2.09 µM (inactive) in the assay with NCI-H226; 2.37 µM (inactive) with 786-0. Besides, the GI50 with SR was 0.968 µM (active).
Regarding `Cc1cc(C)nc(NC(=S)Nc2ccccc2Cl)c1`, the GI50 in the assay with UACC-257, with SK-MEL-5, in the assay on SK-OV-3, in the assay with SK-MEL-28, in the assay on NCI/ADR-RES and in the assay on MOLT-4 was > 100 µM (inactive) each time. Further, the GI50 with T47D, in the assay with HOP-62, with OVCAR-8, in the assay on SF-268, in the assay with SNB-19 and with Hs-578T was > 100 µM (inactive) throughout. In addition, the GI50 in the assay with HCT-116, in the assay with BT-549, in the assay on IGROV-1, in the assay on NCI-H226, in the assay on 786-0 and with SR was > 100 µM (inactive) in each case.
